Measured values taken from patent US10125118B2, “Heteroaryl compounds and their use as therapeutic drugs” (Dong-A Socio Holdings Co., Ltd., priority 2015, dated 2018).

What was measured:
[1] = target: human c-MER catalytic domain (Homo sapiens (Human), UniProt Q12866); experiment: LanthaScreen TR-FRET kinase assay, c-MER; settings: read-out: Mer TK inhibition (IC50); Biochemical IC50, TR-FRET, 10 uM ATP
[2] = tested on: CD8-MerTK in Ba/F3-CDM cells; experiment: In cell MER kinase assay, Ba/F3-CDM cell proliferation without IL-3 (Celltiter-Glo); type: cell-based, murine; settings: 48 hours compound treatment, read-out: Cell growth inhibition (GI50)
How it was run: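 Ba/F3 cells, IL-3-dependent, transfected with CD8-MerTK and grown without IL-3 in DMEM/10% FBS. IL-3-supplemented Ba/F3 cells run in parallel as a cytotoxicity control.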

Chain of human c-MER catalytic domain (Q12866 587-858): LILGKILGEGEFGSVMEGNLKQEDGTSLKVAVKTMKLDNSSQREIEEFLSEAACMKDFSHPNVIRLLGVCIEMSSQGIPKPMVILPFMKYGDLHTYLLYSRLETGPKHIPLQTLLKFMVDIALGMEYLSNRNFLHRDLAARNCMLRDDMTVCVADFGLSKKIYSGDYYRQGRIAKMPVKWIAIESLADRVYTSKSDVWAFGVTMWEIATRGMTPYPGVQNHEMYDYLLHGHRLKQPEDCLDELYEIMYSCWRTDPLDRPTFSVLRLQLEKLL

| SMILES | IC50 [1] [nM] | GI50 [2] [nM] |
| --- | --- | --- |
| CN1CCC(Cc2ccc(-c3ccc(CO[C@H]4CCC[C@@H]4NC(=O)c4cc(-c5cnn(C)c5)cnc4N)cc3)cc2)CC1 [Example 239, 2-amino-5-(1-methyl-1H-pyrazol-4-yl)-N-((1S,2S)-2-((4′-((1-methylpiperidin-4-yl)methyl)-[1,1′-biphenyl]-4-yl)methoxy)cyclopentyl)nicotinamide] | < 10 | < 100 |
| CN1CCN(Cc2ccc(-c3ccc(CO[C@H]4CNC[C@@H]4NC(=O)c4cc(-c5cnn(C)c5)cnc4N)cc3)cc2C(F)(F)F)CC1 [Example 436, 2-amino-5-(1-methyl-1H-pyrazol-4-yl)-N-((3S,4S)-4-((4′-((4-methylpiperazin-1-yl)methyl)-3′-(trifluoromethyl)-[1,1′-biphenyl]-4-yl)methoxy)-pyrrolidin-3-yl)nicotinamide] | < 10 | 500 to 1000 |
| CC(c1ccc(-c2ccc(CO[C@H]3CCC[C@@H]3NC(=O)c3cc(-c4cnn(C)c4)cnc3N)cc2)cc1)N1CCN(C)CC1 (stereo partly drawn) [Example 208, 2-amino-5-(1-methyl-1H-pyrazol-4-yl)-N-((1S,2S)-2-((4′-(1-(4-methylpiperazin-1-yl)ethyl)-[1,1′-biphenyl]-4-yl)methoxy)cyclopentyl)nicotinamide] | < 10 | < 100 |
| Cc1cccc(-c2cnc(N)c(C(=O)N[C@H]3CCC[C@@H]3OCc3ccc(-c4ccc(CN5CCN(C)CC5)cc4)cc3)c2)c1 [Example 370, 2-amino-N-((1S,2S)-2-((4′-((4-methylpiperazin-1-yl)methyl)-[1,1′-biphenyl]-4-yl)methoxy)cyclopentyl)-5-(m-tolyl)nicotinamide] | < 10 | < 100 |
| CN1CCN(Cc2ccc(-c3ccc(CO[C@H]4CCC[C@@H]4NC(=O)c4cc(-c5ccc(O)cc5)cnc4N)cc3)cc2)CC1 [Example 372] | < 10 | < 100 |
| Cn1cc(-c2cnc(N)c(C(=O)N[C@H]3CCC[C@@H]3OCc3ccc(-c4ccc(CO)cc4)cc3)c2)cn1 [Example 142, 2-amino-N-((1S,2S)-2-((4′-(hydroxymethyl)-[1,1′-biphenyl]-4-yl)methoxy)cyclopentyl)-5-(1-methyl-1H-pyrazol-4-yl)nicotinamide] | < 10 | 100 to 500 |
| CN1C[C@H](NC(=O)c2cc(-c3cnn(C)c3)cnc2N)[C@@H](OCc2ccc(-c3ccc(C(C)(C)N4CCN(CCO)CC4)cc3)cc2)C1 [Example 441] | < 10 | 100 to 500 |
| CN1CCN(Cc2ccc(-c3ccc(CO[C@H]4COC[C@@H]4NC(=O)c4cc(-c5cnn(C)c5)cnc4N)cc3)cc2)CC1 [Example 448, 2-amino-5-(1-methyl-1H-pyrazol-4-yl)-N-((3S,4R)-4-((4′-((4-methylpiperazin-1-yl)methyl)-[1,1′-biphenyl]-4-yl)methoxy)tetrahydrofuran-3-yl)-nicotinamide] | < 10 | < 100 |
| CCc1cc(CO[C@H]2CCC[C@@H]2NC(=O)c2cc(-c3cnn(C)c3)cnc2N)ccc1C [Example 21, 2-amino-N-((1S,2S)-2-((3-ethyl-4-methylbenzyl)oxy)cyclopentyl)-5-(1-methyl-1H-pyrazol-4-yl)nicotinamide] | < 10 | > 1000 |
| CN1CCN(Cc2ccc(-c3ccc(CO[C@H]4CCC[C@@H]4NC(=O)c4cc(-c5cnn(C(F)(F)C(F)F)c5)cnc4N)cc3)cc2)CC1 [Example 387] | < 10 | < 100 |
| Cn1cc(-c2cnc(N)c(C(=O)N[C@H]3CCC[C@@H]3OCc3ccc(-c4ccc(CCN)cc4)cc3)c2)cn1 [Example 145, 2-amino-N-((1S,2S)-2-((4′-(2-aminoethyl)-[1,1′-biphenyl]-4-yl)methoxy)cyclopentyl)-5-(1-methyl-1H-pyrazol-4-yl)nicotinamide] | < 10 | > 1000 |
| CC1CCN(Cc2ccc(-c3cnc(N)c(C(=O)N[C@H]4CCC[C@@H]4OCc4ccc(-c5ccc(CN6CCN(C)CC6)cc5)cc4)c3)cc2)CC1 [Example 378, 2-amino-N-((1S,2S)-2-((4′-((4-methylpiperazin-1-yl)methyl)-[1,1′-biphenyl]-4-yl)methoxy)cyclopentyl)-5-(4-((4-methylpiperidin-1-yl)methyl)phenyl)-nicotinamide] | < 10 | < 100 |
| Cc1ccc(CO[C@H]2CCC[C@@H]2NC(=O)c2cc(-c3ccc(CN4CCC(O)CC4)cc3)cnc2N)cc1C [Example 328, 2-amino-N-((1S,2S)-2-((3,4-dimethylbenzyl)oxy)cyclopentyl)-5-(4-((4-hydroxypiperidin-1-yl)methyl)phenyl)nicotinamide] | < 10 | 500 to 1000 |
| CC(c1ccc(-c2ccc(CO[C@H]3CCC[C@@H]3NC(=O)c3cc(-c4cnn(C)c4)cnc3N)cc2)cc1)N1C[C@@H](C)N(CCO)[C@@H](C)C1 (stereo partly drawn) [Example 211] | < 10 | < 100 |
| Cc1ccc(CO[C@H]2CCC[C@@H]2NC(=O)c2cc(-c3ccc(CN4CCC(N5CCCC5)CC4)c(F)c3)cnc2N)cc1C [Example 325, 2-amino-N-((1S,2S)-2-((3,4-dimethylbenzyl)oxy)cyclopentyl)-5-(3-fluoro-4-((4-(pyrrolidin-1-yl)piperidin-1-yl)methyl)phenyl)nicotinamide] | < 10 | > 1000 |
| CN1CCN(Cc2ccc(-c3ccc(CO[C@H]4CCC[C@@H]4NC(=O)c4cc(-c5ccncc5)cnc4N)cc3)cc2)CC1 [Example 377, 6-amino-N-((1S,2S)-2-((4′-((4-methylpiperazin-1-yl)methyl)-[1,1′-biphenyl]-4-yl)methoxy)cyclopentyl)-[3,4′-bipyridine]-5-carboxamide] | < 10 | < 100 |
| COC(=O)CN1CCC(Cc2ccc(-c3ccc(CO[C@H]4CCC[C@@H]4NC(=O)c4cc(-c5cnn(C)c5)cnc4N)cc3)cc2)CC1 [Example 241, Methyl 2-(4-((4′-((((1S,2S)-2-(2-amino-5-(1-methyl-1H-pyrazol-4-yl)nicotinamido)cyclopentyl)oxy)methyl)-[1,1′-biphenyl]-4-yl)methyl)piperidin-1-yl)-acetate] | < 10 | 500 to 1000 |
| CN1CCN(Cc2ccc(-c3ccc(CO[C@H]4CN(C)C[C@@H]4NC(=O)c4cc(-c5cnn(C)c5)cnc4N)cc3)cc2C(F)(F)F)CC1 [Example 437, 2-amino-5-(1-methyl-1H-pyrazol-4-yl)-N-((3S,4S)-1-methyl-4-((4′-((4-methylpiperazin-1-yl)methyl)-3′-(trifluoromethyl)-[1,1′-biphenyl]-4-yl)-methoxy)pyrrolidin-3-yl)nicotinamide] | < 10 | < 100 |
| Cn1cc(-c2cnc(N)c(C(=O)N[C@H]3CCC[C@@H]3OCc3ccc(-c4ccc(N5CCNCC5)nc4)cc3)c2)cn1 [Example 147, 2-amino-5-(1-methyl-1H-pyrazol-4-yl)-N-((1S,2S)-2-((4-(6-(piperazin-1-yl)pyridin-3-yl)benzyl)oxy)cyclopentyl)nicotinamide] | < 10 | 100 to 500 |
| CN1CCN(Cc2ccc(-c3ccc(CO[C@H]4CCC[C@@H]4NC(=O)c4cc(-c5ccccc5)cnc4N)cc3)cc2)CC1 [Example 371, 2-amino-N-((1S,2S)-2-((4′-((4-methylpiperazin-1-yl)methyl)-[1,1′-biphenyl]-4-yl)methoxy)cyclopentyl)-5-phenylnicotinamide] | < 10 | < 100 |
| CN1CCN(Cc2ccc(-c3ccc(CO[C@H]4CCC[C@@H]4NC(=O)c4cc(-c5ccc(CN6CCN(C)CC6)cc5)cnc4N)cc3)cc2)CC1 [Example 368] | < 10 | < 100 |
| CN1CCC(n2cc(-c3cnc(N)c(C(=O)N[C@H]4CCC[C@@H]4OCc4ccc(-c5ccc(CN6CCN(C)CC6)cc5)cc4)c3)cn2)CC1 [Example 366, 2-amino-N-((1S,2S)-2-((4′-((4-methylpiperazin-1-yl)methyl)-[1,1′-biphenyl]-4-yl)methoxy)cyclopentyl)-5-(1-(1-methylpiperidin-4-yl)-1H-pyrazol-4-yl)nicotinamide] | < 10 | < 100 |
| Cc1ccc(CO[C@H]2CCC[C@@H]2NC(=O)c2cc(-c3ccc(CN4CCC(N5CCOCC5)C4)cc3)cnc2N)cc1C (stereo partly drawn) [Example 337, 2-amino-N-((1S,2S)-2-((3,4-dimethylbenzyl)oxy)cyclopentyl)-5-(4-((3-morpholinopyrrolidin-1-yl)methyl)phenyl)nicotinamide] | < 10 | 500 to 1000 |
| CC1CN[C@@H](C)CN1Cc1ccc(-c2ccc(CO[C@H]3CCC[C@@H]3NC(=O)c3cc(-c4cnn(C)c4)cnc3N)cc2)cc1 (stereo partly drawn) [Example 191, 2-amino-N-((1S,2S)-2-((4′-((trans-2,5-dimethylpiperazin-1-yl)methyl)-[1,1′-biphenyl]-4-yl)methoxy)cyclopentyl)-5-(1-methyl-1H-pyrazol-4-yl)nicotinamide] | < 10 | 100 to 500 |
| Cn1cc(-c2cnc(N)c(C(=O)N[C@H]3CCC[C@@H]3OCc3ccc(-c4ccc(CN5CCC(N6CCCC6)CC5)cc4)cc3)c2)cn1 [Example 179, 2-amino-5-(1-methyl-1H-pyrazol-4-yl)-N-((1S,2S)-2-((4′-((4-(pyrrolidin-1-yl)piperidin-1-yl)methyl)-[1,1′-biphenyl]-4-yl)methoxy)cyclopentyl)-nicotinamide] | < 10 | 100 to 500 |
| CN1CCN(Cc2ccc(-c3ccc(CO[C@H]4CCC[C@@H]4NC(=O)c4cc(-c5cccnc5)cnc4N)cc3)cc2)CC1 [Example 375, 6-amino-N-((1S,2S)-2-((4′-((4-methylpiperazin-1-yl)methyl)-[1,1′-biphenyl]-4-yl)methoxy)cyclopentyl)-[3,3′-bipyridine]-5-carboxamide] | < 10 | < 100 |
| Cn1cc(-c2cnc(N)c(C(=O)N[C@H]3CCC[C@@H]3OCc3ccc(-c4ccc(C5(N6CCN(CCO)CC6)CC5)cc4)cc3)c2)cn1 [Example 220, 2-amino-N-((1S,2S)-2-((4′-(1-(4-(2-hydroxyethyl)piperazin-1-yl)cyclopropyl)-[1,1′-biphenyl]-4-yl)methoxy)cyclopentyl)-5-(1-methyl-1H-pyrazol-4-yl)nicotinamide] | < 10 | < 100 |
